Assay results published in patent US5332733A, “Heterocyclically substituted piperazinoakylbenzoxazine and piperazinoalkylbenzothiazine compounds, processes for preparing them, and medicaments containing them” (Kali-Chemie Pharma GmbH, priority 1990, dated 1994).

What was measured:
cyclooxygenase = biological target: T1, cyclooxygenase (Mus musculus, UniProt P22437); experiment: In vitro cyclooxygenase inhibition, release of 6-keto-PGF1α from zymosan-stimulated peritoneal macrophages; format: cell-based; conditions: zymosan-stimulated mouse peritoneal macrophage cells, 10^-5 mole/l
T1 construct: A cell suspension containing peritoneal cells from male mice 8-10 weeks old was obtained in a known manner; endogenous in cells; host or cells: mouse peritoneal macrophages (primary, adherent)
T1 sequence (P22437 27-602): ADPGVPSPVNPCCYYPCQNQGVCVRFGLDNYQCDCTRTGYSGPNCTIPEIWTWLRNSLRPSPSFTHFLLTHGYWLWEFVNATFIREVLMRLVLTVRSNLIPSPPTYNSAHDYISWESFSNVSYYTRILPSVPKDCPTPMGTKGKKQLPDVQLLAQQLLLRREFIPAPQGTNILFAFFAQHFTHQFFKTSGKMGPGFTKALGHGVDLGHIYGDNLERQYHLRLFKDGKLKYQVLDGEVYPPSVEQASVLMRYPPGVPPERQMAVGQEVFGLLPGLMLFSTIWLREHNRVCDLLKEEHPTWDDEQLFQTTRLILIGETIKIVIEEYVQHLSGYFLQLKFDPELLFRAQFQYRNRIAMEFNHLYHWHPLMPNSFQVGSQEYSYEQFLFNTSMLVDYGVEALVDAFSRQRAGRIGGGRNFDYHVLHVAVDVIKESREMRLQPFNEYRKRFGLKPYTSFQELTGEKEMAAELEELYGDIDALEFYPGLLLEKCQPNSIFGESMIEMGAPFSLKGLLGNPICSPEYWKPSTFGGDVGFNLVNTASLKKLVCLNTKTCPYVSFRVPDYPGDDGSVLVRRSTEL
Description: (§1) 5. In Vitro Determination of Cyclooxygenase Inhibition And 5-lipoxygenase Inhibition.
(§2) After a cell is activated, arachidonic acid contained in cell membranes is metabolized in two ways. Leucotrienes, inter alia leucotriene C4, are formed due to the action of the enzyme 5-lipoxygenase (=5-LO), and prostanoids are formed due to the action of the enzyme cyclooxygenase (=CO). In in vitro systems these metabolites are secreted from the cell.
(§3) To evaluate the cyclooxygenase-inhibiting and 5-lipoxygenase-inhibiting properties of the test substances, their inhibitory activity on the biosynthesis of the arachidonic acid derivatives leucotriene C4 (=LTC4) and 6-keto-prostaglandin F1α (=6-keto-PGF1α) was determined in vitro on mouse peritoneal macrophage cells. For this purpose the LTC4 and 6-keto-PGF1α contents of a mouse peritoneal macrophage cell culture medium were determined by zymosan stimulation as described by Scott et al. (J. Exp. Med. 152 (1980), 324-335) and by Fradin et al., (Prostaglandins, 33 (1987), 579-589).
(§4) A cell suspension containing peritoneal cells from male mice 8-10 weeks old was obtained in a known manner. A solution marketed under the designation RPMI 1640 (Manufactured by Gibco) was used as the cell culture medium, to which heparin (10 international units/ml) and antibiotics were added according to the procedure of Bonney et al. (Biochem. J. 176 (1978) 422-433). The cell suspension was adjusted to a cell concentration of 10^6 cells per ml and distributed uniformly on titer dishes containing 24 1-ml titer cells (wells). These were kept for two hours in a humidified incubator filled with air enriched with 7% CO2. Cells not adhering to the titer well walls were then removed by washing. The remaining macrophage cells adhering to the walls were incubated for about 12 hours in a suspension medium to which 0.1% of bovine serum albumin (BSA=Bovine Serum Albumin) was added. The suspension medium was then replaced by a Hanks salt solution (=Hanks Balanced Salt Solution=HBSS) with 10 mmoles of HEPES (=hydroxyethylpiperazinoethanesulfonic acid) to which a 0.1% strength solution of the test substances in aqueous, 1% strength dimethylformamide or only the solvent had been added. After 15 minutes the arachidonic acid metabolism was stimulated by adding […] of zymosan (=glycoprotein mixture isolated from cell walls of beer yeast, Saccharomyces cerevisiae, Manufactured by Sigma Chemical Co., Munich) per titre cell. After 2 hours samples of the respective supernatant liquid in each cell were examined for their 6-keto-PGF1α and LTC4 contents by an enzyme immunoassay (=EIA). This EIA is carried out following the method of Pradelles et al. (Analytical Chem. 57 (1985), 1170-1173). The determination of LTC4 and the determination of 6-keto-PGF1α were each carried out on suitable dilutions of the samples (1:50 to 1:250 for the LTC4 determination and 1:250 to 1:1,250 for the 6-keto-PGF1α determination) in comparison with a comparative scale. To determine the inhibiting effect of a 10^-5 molar concentration of the compounds, the amounts of reference eicosanoid were determined, and the inhibiting effect was calculated therefrom in % inhibition compared to the measurements of the zymosan controls.

5-lipoxygenase = biological target: T2, 5-lipoxygenase (Mus musculus, UniProt P48999); experiment: In vitro 5-lipoxygenase inhibition, release of LTC4 from zymosan-stimulated peritoneal macrophages; format: cell-based; conditions: zymosan-stimulated mouse peritoneal macrophage cells, 10^-5 mole/l
T2 construct: A cell suspension containing peritoneal cells from male mice 8-10 weeks old was obtained in a known manner; endogenous in cells; host or cells: mouse peritoneal macrophages (primary, adherent)
T2 sequence (P48999 1-674): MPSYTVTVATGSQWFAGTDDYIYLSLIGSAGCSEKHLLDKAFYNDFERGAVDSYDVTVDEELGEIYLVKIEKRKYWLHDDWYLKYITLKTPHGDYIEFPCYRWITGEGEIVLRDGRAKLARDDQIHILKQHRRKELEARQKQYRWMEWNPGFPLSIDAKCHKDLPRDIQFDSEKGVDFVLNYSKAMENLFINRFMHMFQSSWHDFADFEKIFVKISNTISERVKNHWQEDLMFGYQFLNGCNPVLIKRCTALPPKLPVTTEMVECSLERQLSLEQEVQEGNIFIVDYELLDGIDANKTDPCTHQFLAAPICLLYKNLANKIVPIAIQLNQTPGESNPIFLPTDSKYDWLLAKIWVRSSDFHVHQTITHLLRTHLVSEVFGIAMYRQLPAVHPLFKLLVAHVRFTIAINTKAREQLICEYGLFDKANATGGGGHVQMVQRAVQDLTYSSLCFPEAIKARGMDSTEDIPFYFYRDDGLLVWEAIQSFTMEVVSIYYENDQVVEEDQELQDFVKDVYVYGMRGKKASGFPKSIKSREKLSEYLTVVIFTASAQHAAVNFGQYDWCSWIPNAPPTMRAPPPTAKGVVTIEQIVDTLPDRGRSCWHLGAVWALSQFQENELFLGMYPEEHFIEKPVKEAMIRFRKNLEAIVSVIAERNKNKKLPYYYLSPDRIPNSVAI
Description: as §1, §2, §3, §4

Row | Compound | % inhibition upon release of 6-keto-PGF1α (cyclooxygenase) [%] | % inhibition upon release of LTC4 (5-lipoxygenase) [%]
1 | Cc1ccnc(N2CCN(CCCCC3Sc4ccccc4NC3=O)CC2)c1 (stereo not shown) [Example 1, 2-{4-[4-(4-methylpyridin-2-yl)-piperazin-1-yl]butyl}-2H-1,4-benzothiazine-3(4H)-one] | 27 | 48
2 | Cc1ccnc(N2CCN(CCCC3Oc4ccccc4NC3=O)CC2)c1 (stereo not shown) [Example 9] | 32 | 65
3 | Cc1ccnc(N2CCN(CCCC3Sc4ccccc4NC3=S)CC2)c1 (stereo not shown) [Example 11] | 0 | 42
4 | O=C1Nc2ccccc2SC1CCCN1CCN(c2ccc(Cl)cn2)CC1 (stereo not shown) [Example 15] | 46 | 9
5 | Cc1ccnc(N2CCN(CCCCC3Oc4ccccc4NC3=O)CC2)c1 (stereo not shown) [Example 7] | 17 | 46
